Data taken from patent US4663326A, “Pyrazolo[4,3-d]pyrimidine-5,7-(4H,6H)dione or -5-thione-7-one analogs” (Warner-Lambert Company, priority 1985, dated 1987).

Columns and labels:
Type 3 Phosphodiesterase = experiment: PDE inhibition, Type 3 phosphodiesterase, smooth muscle (bovine coronary arteries); type: biochemical; details: 1 × 10^-5 M
Source text: The method of Thompson, et al (Thompson, W. J., Terasaki, W. L., Epstein, P. M., Strada, S. J., Adv. Cyclic Nucleotide Res., 10:69-92, 1979), with minor modifications, was used to isolate phosphodiesterases from vascular smooth muscle. Bovine coronary arteries (right, anterior descending, and left circumflex arteries) from hearts obtained from a local slaughterhouse were used for these studies. Arteries from two hearts were used for each isolation. Hearts were kept on ice and the arteries were dissected within two hours after the animals were sacrificed. After removing all fat and connective tissue, the arteries were everted, cut into cubes with a single edge razor blade and homogenized with a Brinkman Polytron three times at a rheostat setting of 10.0 in four volumes of the PDE isolation buffer (10 mM Tris-HCl/pH 7.5, 2 mM MgCl2, and 1 mM dithiothreitol). The resulting homogenate was sonicated (30 sec/ml homogenate) and then centrifuged at 30,000×g for 20 minutes. This and all subsequent procedures were performed at 4° C. […]
(§1) Phosphodiesterase activity was measured as described previously (Weishaar, P. E., Quade, M., Boyd, D., Schenden, J., Mark, S. S., Kaplan, H. R., Drug Devel. Res., 3:517-534, 1983), in a reaction medium containing 40 mM Tris-HCl (pH 8.0), 5 mM MgCl and 4 mM 2-mercaptoethanol. […]

Type 1 Phosphodiesterase = experiment: PDE inhibition, Type 1 phosphodiesterase, smooth muscle (bovine coronary arteries); type: biochemical; details: 1 × 10^-5 M
Source text: The method of Thompson, et al (Thompson, W. J., Terasaki, W. L., Epstein, P. M., Strada, S. J., Adv. Cyclic Nucleotide Res., 10:69-92, 1979), with minor modifications, was used to isolate phosphodiesterases from vascular smooth muscle. Bovine coronary arteries (right, anterior descending, and left circumflex arteries) from hearts obtained from a local slaughterhouse were used for these studies. Arteries from two hearts were used for each isolation. Hearts were kept on ice and the arteries were dissected within two hours after the animals were sacrificed. After removing all fat and connective tissue, the arteries were everted, cut into cubes with a single edge razor blade and homogenized with a Brinkman Polytron three times at a rheostat setting of 10.0 in four volumes of the PDE isolation buffer (10 mM Tris-HCl/pH 7.5, 2 mM MgCl2, and 1 mM dithiothreitol). The resulting homogenate was sonicated (30 sec/ml homogenate) and then centrifuged at 30,000×g for 20 minutes. This and all subsequent procedures were performed at 4° C. The resulting supernatant was filtered through four layers of gauze, and applied to a DEAE-cellulose column (30×1.5 cm), prepared as described by Cheung (Cheung, W. Y., Biochim. Biopphys. Acta, 191:303-315, 1969), and equilibrated with freshly prepared 70 mM sodium acetate/5 mM 2-mercaptoethanol (pH 6.5). The column was then washed with 2-3 bed volumes of sodium acetate/2-mercaptoethanol, after which the phosphodiesterases were eluted from the column using a continuous 70-1,000 mM sodium acetate gradient (pH 6.5, containing 5 mM 2-mercaptoethanol; total volume 400 ml). The flow rate was approximately equal to 25 ml/hr. Eight ml fractions were collected and assayed for cyclic AMP- and cyclic GMP-phosphodiesterase activity in the presence and absence of 0.1 units of calmodulin and 10 mM CaCl2. Appropriate fractions were pooled and dialyzed against 70 mM sodium acetate/5 mM 2-mercaptoethanol for 20 hours.
Following complete separation, the combined phosphodiesterase fractions were concentrated to 14% of the original volume using an Amicon ultrafiltration cell fitted with a UM-10 membrane, according to the method of Wells, et al (Wells, J. N., Baird, C. E., Wu, Y. J., Hardman, J. G., Biochim. Biophys. Acta, 384:430-442, 1975). Following concentration, the protein was then diluted to 65% with ethylene glycol monoethyl ether, and stored at -20° C.
as §1, with “2-mercaptoethanol. Unless otherwise noted, the concentration of substrate (^3 H-cyclic AMP or ^3 H-cyclic GMP) was 1.0 μM.” for “2-mercaptoethanol.”

[1] = system: pentobarbital-anesthetized dog; experiment: In vivo myocardial inotropic activity in anesthetized dog (CVAD); design: species or system dog (adult mongrel); details: for Percent Change Heart Rate / Percent Change Myocardial Contractility / Percent Change Blood Pressure (second value) / Percent Change Blood Pressure (first value): intravenous; for Percent Change Blood Pressure (second value): value after the slash; for Percent Change Blood Pressure (first value): value before the slash
Procedure: This test procedure is described in the following paragraphs.
This screen consists of determining the effects of increasing intravenous doses of compound on mycardial contractility (dP/dt max of left ventricular blood pressure), heart rate, and aortic blood pressure of the pentobarbital-anesthetized dog.
Adult mongrel dogs of either sex are anesthetized with pentobarbital, 35 mg/kg, IV, and are subsequently maintained under anesthesia with a continuous infusion of pentobarbital, 3.5 mg/kg/hour. The trachea is intubated but the animals are permitted to breathe spontaneously. A cannula is inserted into the femoral vein for administrating test agents. A Millar catheter tip pressure transducer or a fluid filled catheter is inserted into the ascending aorta via the femoral artery for measuring aortic blood pressure. A Millar catheter tip pressure transducer is passed into the left ventricle via the left carotid artery for measuring left ventricular blood pressure. Needle electrodes are placed subcutaneously for recording a lead II electrocardiogram (ECG).
Left ventricular and aortic blood pressures are recorded on a strip chart recorder. Heart rate, using a biotachometer triggered from the R wave of the ECG, and the first derivative of left ventricular blood pressure (dP/dt), obtained with a differentiator amplifier coupled to the corresponding pressure amplifier, are also recorded. A period of at least 30 minutes is utilized to obtain control data prior to administration of test compound.
Depending on solubility, the compounds are dissolved in 0.9% saline solution or in dilute HCl or NaOH (0.1 to 1.0N) and are diluted to volume with normal saline. Ethanol or dimethylacetamide can be used as solvents if adequate dilutions can be made. Appropriate vehicle controls are administered when needed.
Each dose of the test compound is administered in a volume of […] over a period of one minute.

[2] = intravenously at about 0.01 to 0.31 mg/kg

% Inhibition of 3H-cAMP Hydrolysis, Type 3 Phosphodiesterase (Type 3 Phosphodiesterase)	% Inhibition of 3H-cAMP Hydrolysis, Type 1 Phosphodiesterase (Type 1 Phosphodiesterase)	% Inhibition of 3H-cGMP Hydrolysis, Type 1 Phosphodiesterase (Type 1 Phosphodiesterase)	SMILES	Percent Change Heart Rate ([1]; 0.10 mg/kg) [%]	Percent Change Myocardial Contractility ([1]; 0.10 mg/kg) [%]	Percent Change Blood Pressure (second value) ([1]; 0.10 mg/kg) [%]	Percent Change Blood Pressure (first value) ([1]; 0.10 mg/kg) [%]	Percent Change Heart Rate ([1]; 1.00 mg/kg) [%]	Percent Change Myocardial Contractility ([1]; 1.00 mg/kg) [%]	Percent Change Blood Pressure (second value) ([1]; 1.00 mg/kg) [%]	Percent Change Blood Pressure (first value) ([1]; 1.00 mg/kg) [%]	Percent Change Heart Rate ([1]; 3.10 mg/kg) [%]	Percent Change Myocardial Contractility ([1]; 3.10 mg/kg) [%]	Percent Change Blood Pressure (second value) ([1]; 3.10 mg/kg) [%]	Percent Change Blood Pressure (first value) ([1]; 3.10 mg/kg) [%]	further results
N (0-20% inhibition at 1 × 10^-5 M)	N (0-20% inhibition at 1 × 10^-5 M)	N (0-20% inhibition at 1 × 10^-5 M)	Cc1nn(C)c2c(=O)[nH]c(=O)[nH]c12 [Example 1, 1,3-Dimethylpyrazolo[4,3-d]pyrimidine-5,7-(4H, 6H)dione]	1	5	1	1	5	41	-2	0	15	90	-4	-2	Percent Change Heart Rate ([1]; 0.31 mg/kg): 1%; Percent Change Myocardial Contractility ([1]; 0.31 mg/kg): 13%; Percent Change Blood Pressure (second value) ([1]; 0.31 mg/kg): -1%; Percent Change Blood Pressure (first value) ([1]; 0.31 mg/kg): 1%; blood pressure (in words) [1, 2]: moderate reduction in blood pressure; cardiac contractility (in words) [1, 2]: dose related significant increases in cardiac contractility; heart rate (in words) [1, 2]: only low or minimal changes in heart rate
B (36-55% inhibition at 1 × 10^-5 M)	N (0-20% inhibition at 1 × 10^-5 M)	N (0-20% inhibition at 1 × 10^-5 M)	CCn1nc(C)c2[nH]c(=S)[nH]c(=O)c21 [Example 2, 1-Ethyl-1,4,5,6-tetrahydro-3-methyl-pyrazolo[4,3-d]pyrimidine-5-thione-7-on]	3	5	-1	-1	-1	13	-4	-2	5	45	-9	-6	Percent Change Heart Rate ([1]; 0.30 mg/kg): 2%; Percent Change Myocardial Contractility ([1]; 0.30 mg/kg): 8%; Percent Change Blood Pressure (second value) ([1]; 0.30 mg/kg): -4%; Percent Change Blood Pressure (first value) ([1]; 0.30 mg/kg): -3%
